# Reference: article PMC7771544 (ChemMedChem, 2016)
# Key:
# MST3 = MST3 (Homo sapiens, UniProt Q9Y6E0); assay: 33P-radiolabeled kinase assay; type: biochemical
# CDK2 = settings: cited from earlier work
# CDK1 = settings: cited from earlier work
# Sequence of MST3 (Q9Y6E0 1-431 isoform Q9Y6E0-2): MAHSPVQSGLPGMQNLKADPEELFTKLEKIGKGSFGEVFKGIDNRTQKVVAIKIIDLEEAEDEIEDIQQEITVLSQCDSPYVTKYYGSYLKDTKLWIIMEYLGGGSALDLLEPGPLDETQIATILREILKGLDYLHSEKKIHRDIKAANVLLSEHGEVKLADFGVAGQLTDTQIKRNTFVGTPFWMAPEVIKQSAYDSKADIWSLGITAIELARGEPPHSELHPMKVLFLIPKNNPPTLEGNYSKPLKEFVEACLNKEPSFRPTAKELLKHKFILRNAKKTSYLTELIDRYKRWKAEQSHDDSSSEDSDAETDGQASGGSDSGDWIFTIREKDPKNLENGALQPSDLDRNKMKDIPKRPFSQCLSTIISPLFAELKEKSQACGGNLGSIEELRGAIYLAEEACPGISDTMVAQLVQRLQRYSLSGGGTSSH
molecule,measurement,setting,value
CCN(CC)CCNC(=O)c1c(C)[nH]c(/C=C2\C(=O)Nc3ccc(F)cc32)c1C [sunitinib],fold difference in MST3 inhibitory activity,MST3; less active than the related compound(s) of the same scaffold,20 fold
COCCOc1ccc2c(c1)ncn2-c1ccc2cccc(N3CCC(N)CC3)c2n1 [CP-673451],IC50,MST3,260 nM
COc1cc(Nc2c(C#N)cnc3cc(OCCCN4CCN(C)CC4)c(OC)cc23)c(Cl)cc1Cl [bosutinib],IC50,MST3,3 nM
CDK1/2 inhibitor III,activity against CDK2,CDK2,sub-nanomolar
same,activity against CDK1,CDK1,sub-nanomolar
